Results taken from the supplement of paper PMC10307832.

Columns and labels:
Experiment in all cases: relative viability (nuclei count vs DMSO), 5 days (fraction); higher = more cells survive
Dactolisib + Linsitinib = compound: Cn1c(=O)n(-c2ccc(C(C)(C)C#N)cc2)c2c3cc(-c4cnc5ccccc5c4)ccc3ncc21 [Dactolisib] + C[C@]1(O)C[C@@H](c2nc(-c3ccc4ccc(-c5ccccc5)nc4c3)c3c(N)nccn32)C1 [Linsitinib] (partner 1 µM)
Method in brief: (§1)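 After 5 days of treatment, lung cancer cells in 1536-well plates were fixed and stained in a single step (final 0.05% Triton X-100, 1% formaldehyde, 1 ug/ml Hoechst) and their nuclei counted on 4× images. Treatment had been applied by pin tool the day after seeding as one drug alone or as a fixed anchor-drug dose with five library-drug doses (not always all listed) in √10 steps. Relative viability is the nuclei count of treated wells divided by that of vehicle wells, and values are medians of duplicate plates.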

Dactolisib + Trametinib = compound: Cn1c(=O)n(-c2ccc(C(C)(C)C#N)cc2)c2c3cc(-c4cnc5ccccc5c4)ccc3ncc21 [Dactolisib] + CC(=O)Nc1cccc(-n2c(=O)n(C3CC3)c(=O)c3c(Nc4ccc(I)cc4F)n(C)c(=O)c(C)c32)c1 [Trametinib] (partner 0.02 µM)
Method in brief: as §1

Dactolisib + Decitabine = compound: Cn1c(=O)n(-c2ccc(C(C)(C)C#N)cc2)c2c3cc(-c4cnc5ccccc5c4)ccc3ncc21 [Dactolisib] + Nc1ncn([C@H]2C[C@H](O)[C@@H](CO)O2)c(=O)n1 [Decitabine] (partner 2 µM)
Method in brief: as §1

AZ505 + Luminespib = compound: C1CCC(CC1)N(CCNCCC2=C3C(=C(C=C2)O)NC(=O)CO3)C(=O)CCNCCC4=CC(=C(C=C4)Cl)Cl [AZ505] + CCNC(=O)c1noc(-c2cc(C(C)C)c(O)cc2O)c1-c1ccc(CN2CCOCC2)cc1 [Luminespib] (partner 0.01 µM)
Method in brief: as §1

Cell Line	relative viability (Dactolisib + Linsitinib; first compound 0.002 µM)	relative viability (Dactolisib + Linsitinib; first compound 0.006325 µM)	relative viability (Dactolisib + Linsitinib; first compound 0.02 µM)	relative viability (Dactolisib + Linsitinib; first compound 0.06325 µM)	relative viability (Dactolisib + Linsitinib; first compound 0.2 µM)	relative viability (Dactolisib + Trametinib; first compound 0.002 µM)	relative viability (Dactolisib + Trametinib; first compound 0.006325 µM)	relative viability (Dactolisib + Trametinib; first compound 0.02 µM)	relative viability (Dactolisib + Trametinib; first compound 0.06325 µM)	relative viability (Dactolisib + Trametinib; first compound 0.2 µM)	relative viability (Dactolisib + Decitabine; first compound 0.002 µM)	relative viability (Dactolisib + Decitabine; first compound 0.006325 µM)	relative viability (Dactolisib + Decitabine; first compound 0.02 µM)	relative viability (Dactolisib + Decitabine; first compound 0.06325 µM)	relative viability (Dactolisib + Decitabine; first compound 0.2 µM)	relative viability (AZ505 + Luminespib; first compound 0.08 µM)	relative viability (AZ505 + Luminespib; first compound 0.253 µM)	relative viability (AZ505 + Luminespib; first compound 0.8 µM)	relative viability (AZ505 + Luminespib; first compound 2.53 µM)	relative viability (AZ505 + Luminespib; first compound 8 µM)
HCC-78	0.476	0.457	0.383	0.223	0.207	0.726	0.851	0.69	0.445	0.312	0.834	0.854	0.619	0.612	0.455	–	–	–	–	–
HCC-366	0.561	0.453	0.487	0.185	0.0961	0.367	0.299	0.238	0.107	0.101	0.376	0.338	0.256	0.28	0.133	–	–	–	–	–
HCC-827	1.02	0.919	1.03	0.911	0.699	0.582	0.563	0.477	0.313	0.269	0.387	0.343	0.337	0.27	0.294	0.731	1.03	0.683	0.532	1.11
HOP-62	1.04	0.626	0.873	0.447	0.342	0.429	0.349	0.369	0.23	0.195	0.287	0.238	0.215	0.275	0.22	0.864	0.883	0.824	0.884	1
IA-LM	0.681	0.613	0.6	0.124	0.206	–	–	–	–	–	–	–	–	–	–	–	–	–	–	–
LC-2-ad	0.722	–	0.751	0.488	0.565	0.838	0.883	0.99	0.969	0.863	0.888	0.871	0.727	0.784	0.73	0.927	0.881	1.06	0.868	1.16
LCLC-97TM1	0.157	0.186	0.208	0.157	0.132	0.2	0.187	0.167	0.135	0.104	0.261	0.24	0.23	0.172	0.155	0.774	0.853	0.836	0.749	0.871
LCLC-103H	1.06	1.07	0.934	0.661	0.531	0.664	0.604	0.581	0.515	0.42	0.678	0.677	0.592	0.458	0.433	0.914	0.961	0.877	0.877	0.997
LK-2	0.389	0.508	0.507	0.169	0.251	0.609	0.761	0.554	0.225	0.21	0.347	0.305	0.335	0.159	0.142	0.189	0.175	0.172	0.225	0.176
LOU-NH91	0.712	0.888	0.837	0.588	0.527	0.778	0.714	0.679	0.557	0.612	0.772	0.791	0.795	0.623	0.565	0.326	0.331	0.331	0.347	0.38
LU99A	0.572	0.468	0.307	0.218	0.223	0.527	0.493	0.4	0.286	0.192	0.906	0.723	0.602	0.373	0.261	–	0.268	0.212	0.175	0.286
NCI-H522	–	–	–	–	–	0.69	0.678	0.921	0.504	0.512	0.797	0.723	0.751	0.62	0.533	1.12	1.19	1.2	1.33	1.18
NCI-H1299	0.979	0.929	1.01	0.573	0.608	–	–	–	–	–	–	–	–	–	–	–	–	–	–	–
NCI-H1563	1.25	1.11	1.02	0.62	0.654	–	–	–	–	–	–	–	–	–	–	0.478	0.504	0.522	0.473	0.508
NCI-H1623	–	–	–	–	–	–	–	–	–	–	–	–	–	–	–	0.604	0.46	0.58	0.503	0.681
NCI-H1648	–	–	–	–	–	0.467	0.434	0.647	0.387	0.24	0.478	0.476	0.595	0.452	0.343	–	–	–	–	–
NCI-H1650	–	–	–	–	–	0.63	0.614	0.503	0.339	0.22	0.591	0.367	0.37	0.294	0.315	0.206	0.227	0.202	0.19	0.199
NCI-H1703	–	0.637	0.891	0.417	0.468	–	–	–	–	–	–	–	–	–	–	–	–	–	–	–
NCI-H2170	–	–	–	–	–	0.925	0.881	0.845	0.478	0.35	0.489	0.466	0.476	0.371	0.354	0.637	0.606	0.512	0.714	0.835
NCI-H2228	0.659	0.488	0.436	0.323	0.193	0.688	0.4	0.383	0.218	0.144	–	–	–	–	–	0.114	0.182	0.145	0.138	0.14
NCI-H2342	–	–	–	–	–	0.825	0.72	0.811	0.538	0.54	0.726	0.689	0.677	0.58	0.501	0.792	0.662	0.814	0.687	0.738
SW 900	–	–	–	–	–	0.923	0.718	0.746	0.516	0.318	0.546	0.443	0.405	0.409	0.425	0.193	0.183	0.137	0.195	0.167
